Laboratory results published in patent publication US8580268B2, “CpG oligonucleotide analogs containing hydrophobic T analogs with enhanced immunostimulatory activity” (Coley Pharmaceutical GmbH, priority 2006, dated 2013).
Entries after “also recorded” stand apart in the source; their conditions may differ. Strand notation (5' to 3'): a small letter for the sugar, then the base; units joined by * are phosphorothioate-linked, units joined directly phosphodiester-linked; [ ] holds rarer units or linkages, { } end groups; capitals alone tell only the bases. [5IU] = 5-iodo-2'-deoxyuridine (publication's JU); d = 2'-deoxy (DNA)

Tests used:
BALB/c mice [1] = assay: In vivo murine IFN-alpha induction after SC injection (ELISA); design: species or system mouse; settings: bled at 3 hr post injection
Procedure: (§1) Female BALB/c mice (6-8 weeks of age) were purchased from Charles River Canada (Quebec, Canada) and housed in micro-isolators in the Animal Care Facility at Coley Pharmaceutical Group Canada. All studies were conducted in accordance with the Animal Care Committee of Coley Canada under the guidance of the Canadian Council on Animal Care. All animals were naïve to CpG ODNs.
In order to determine the effect of the modified P-class ODN in vivo, BALB/c mice (5 per group) were injected SC with differing doses of ODN. Animals were bled at 3 hr post injection and plasma tested for IFN-alpha by ELISA. The activity of modified P-class ODN (SEQ ID NO:58, 60-62, 64, and 67) was compared to that of a B-class negative control (SEQ ID NO:55) and a negative control (SEQ ID NO:26).

PBMC = assay: B-cell proliferation in CFSE-labeled human PBMC; assay type: cell-based; settings: CFSE-labeled PBMC from three donors, 5 days, CD19 staining
Procedure: Next the activity of modified P-class class ODN (SEQ ID NO:58, 60-62, FIG. 29a) (SEQ ID NO:64 and 67, FIG. 29b) was compared to that of an unmodified B-class ODN (SEQ ID NO:55), an unmodified C-class ODN (SEQ ID NO:54), a negative control ODN (SEQ ID NO:53), an unmodified P-class ODN (SEQ ID NO:56), LPS, R-848, SEB, and a poly[I]:[C] ODN. CFSE-labeled PBMC from three donors were incubated with the ODN for 5 days and then stained with a CD19 antibody. The percentage of B cells with reduced CFSE staining was determined.

BALB/c mouse splenocytes [2] = assay: Cytokine ELISA of mouse splenocyte culture supernatants; assay type: cell-based; settings: BALB/c splenocyte supernatants at 6 hour (TNF-alpha) or 24 hours (IL-6, IL-10, IL-12)
Description: Naïve BALB/c mouse splenocytes (from pools of 3-5 animals) were used for in vitro assays. Animals were anaesthetized with isoflurane and euthanized by cervical dislocation. Spleens were removed under aseptic conditions and placed in PBS+0.2% bovine serum albumin (Sigma Chemical Company). Spleens were then homogenized and splenocytes were re-suspended in RPMI 1640 (Life Technologies, Grand Island, N.Y.) tissue culture medium supplemented with 2% normal mouse serum (Cedarlane Laboratories, Ontario, Canada), penicillin-streptomycin solution (final concentration of 1000 U/ml and 1 mg/ml respectively; Sigma Chemical Company), and 5×10−5 M b-mercaptoethanol (Sigma Chemical Company).
In order to determine the efficacy of the modified ODN of the invention […], ODN with lipophilic T analogs were tested in isolated mouse splenocytes. BALB/c mouse splenocytes were isolated and incubated with modified B class (SEQ ID NO:13), unmodified B class (SEQ ID NO:37), and a non-CpG ODN (SEQ ID NO:26) (Table 5). Culture supernatants were collected at 6 hour (TNF-alpha) or 24 hours (IL-6, IL-10, IL-12) and cytokine concentration was measured by ELISA.

human TLR9 = target: T1, human TLR9 (Homo sapiens, UniProt Q9NR96); assay: TLR9 luciferase assay (NF-κB reporter) in hTLR9-LUC-293 cells; assay type: cell-based; settings: 16 h, stated in words relative to the comparator ODN
T1 construct: expressed in transfected cells
T1 sequence (Q9NR96 26-1032): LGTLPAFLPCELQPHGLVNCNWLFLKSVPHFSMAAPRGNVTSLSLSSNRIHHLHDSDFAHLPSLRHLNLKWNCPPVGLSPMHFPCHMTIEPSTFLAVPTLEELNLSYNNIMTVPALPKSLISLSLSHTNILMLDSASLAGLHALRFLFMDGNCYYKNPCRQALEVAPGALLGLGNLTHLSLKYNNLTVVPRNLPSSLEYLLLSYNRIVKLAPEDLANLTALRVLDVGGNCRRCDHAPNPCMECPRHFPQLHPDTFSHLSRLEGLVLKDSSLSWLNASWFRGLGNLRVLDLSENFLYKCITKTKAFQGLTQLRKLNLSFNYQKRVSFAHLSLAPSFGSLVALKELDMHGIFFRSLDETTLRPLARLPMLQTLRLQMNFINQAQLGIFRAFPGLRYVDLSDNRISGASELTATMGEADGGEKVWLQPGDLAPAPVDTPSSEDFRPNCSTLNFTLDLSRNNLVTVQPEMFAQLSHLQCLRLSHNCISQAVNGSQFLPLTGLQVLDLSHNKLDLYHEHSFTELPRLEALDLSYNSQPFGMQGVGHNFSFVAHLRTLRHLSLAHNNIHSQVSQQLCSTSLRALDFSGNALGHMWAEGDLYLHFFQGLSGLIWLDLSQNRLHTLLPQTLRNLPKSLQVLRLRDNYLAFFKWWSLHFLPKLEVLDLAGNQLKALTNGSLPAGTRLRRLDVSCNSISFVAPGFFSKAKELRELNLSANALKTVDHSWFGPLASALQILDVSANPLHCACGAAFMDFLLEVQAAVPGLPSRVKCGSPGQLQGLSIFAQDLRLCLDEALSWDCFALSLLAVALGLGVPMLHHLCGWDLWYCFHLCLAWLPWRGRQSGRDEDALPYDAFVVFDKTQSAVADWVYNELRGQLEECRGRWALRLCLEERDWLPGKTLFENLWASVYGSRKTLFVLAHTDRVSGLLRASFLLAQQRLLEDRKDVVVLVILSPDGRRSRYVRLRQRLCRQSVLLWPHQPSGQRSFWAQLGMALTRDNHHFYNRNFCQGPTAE
Procedure: HEK293 cells were transfected by electroporation with vectors expressing the respective human TLR and a 6xNF-κB-luciferase reporter plasmid. Stable transfectants (3×10^4 cells/well) were incubated indicated amounts of ODN for 16 h at 37° C. in a humidified incubator. Each data point was done in triplicate. Cells were lysed and assayed for luciferase gene activity (using the BriteLite kit from Perkin-Elmer, Zaventem, Belgium). Stimulation indices were calculated in reference to reporter gene activity of medium without addition of ODN.

BALB/c mouse splenocytes [3] = assay: B cell proliferation in CFSE-stained mouse splenocytes (FACS); assay type: cell-based; settings: 0.001-10 μg/ml ODN, 72 hours, CD19 FACS
Procedure: Caboxy-florescein diacetate, succimidyl ester (CFSE) (Invitrogen, Eugene, Oreg., USA) stained BALB/c mouse splenocytes (4×10^5/well) were incubated with different concentrations of ODN in a humidified 5% CO2 incubator at 37° C. for […]. Cells were then stained with PE conjugated anti-CD19 antibody (BD Pharmingen, San Diego, Calif., USA) for CD19 and B-cell proliferation was determined by FACS followed by analysis by ModFit Software V3.0 (Verity Software House Inc., Topsham, Me., USA).
ODN were then tested their ability to induce B cell proliferation in splenocytes. CFSE-stained BALB/c mouse splenocytes (4×10^5/well) were incubated with 0.001, 0.01, 0.1, 0.3, 1, 3 or 10 μg/ml of the indicated ODN (FIG. 14). At 72 hours post-incubation, cells were stained for cell surface marker CD19 and B-cell proliferation was determined by FACS followed by analysis by ModFit Software. […] The increase was most pronounced even at lower ODN concentration.

BALB/c mice [4] = assay: In vivo plasma cytokine production after SC injection (ELISA); design: species or system mouse
Procedure: as §1
To measure the effect of modified ODN in vivo, BALB/c mice (5 per group) were injected subcutaneously (SC) with 10, 50 or 100 μg of SEQ ID NO:13 or 100 μg of SEQ ID NO:37 in a total volume of 100 μl SC. Control group received 100 μl of PBS alone. Animals were bled by cardiac puncture at 1 hour post injection (TNF-alpha) or 3 hours post injection (IP-10). Plasma samples were assayed ELISA for TNF-alpha (FIG. 15a) and IP-10 (FIG. 15b).

## T*C*G*T*C*G*T*T*T*T*G*T*C*G*T*T*T*T*G*T*C*G*T*T [SEQ ID NO:55, reference compound]
BALB/c mice [1]
  plasma IFN-alpha induction: did not induce much murine IFN-alpha
PBMC
  percentage of B cells with reduced CFSE staining: highest percentage of B cells after division

## T*G*JU*C-G*T*T*T*T*T*T*T*T*T*T*T*T*T*T*T (DNA dT*dG*d[5IU]*dCdG*dT*dT*dT*dT*dT*dT*dT*dT*dT*dT*dT*dT*dT*dT*dT) [SEQ ID NO:13]
BALB/c mouse splenocytes [2]
  cytokine concentration (TNF-alpha, IL-6, IL-10, IL-12): dramatically increased levels of all cytokines tested
Human TLR9
  TLR9 stimulation (NF-κB luciferase activity, relative stimulation index): greater stimulation of TLR9 activity over control; also recorded: more active in the assay than the parent ODN
BALB/c mouse splenocytes [3]
  B-cell proliferation: marked increase in B-cell proliferation
BALB/c mice [4]; 1 hour post injection
  plasma TNF-alpha production: higher
BALB/c mice [4]; 3 hours post injection
  plasma IP-10 production: higher
